Laboratory results reported in patent publication US9624544B2, “Allelic disorders caused by mutations in TRPV4” (Northwestern University, priority 2009, dated 2017).

Key:
[1] = system: TRPV4 (wtTRPV4, TRPV4R269H, TRPV4R316C); assay: Calcium imaging, internal Fura-2 fluorescence ratio (340/380), in transiently transfected HEK293 cells; assay type: cell-based, human; conditions: for effect on [Ca2+]i (internal fluorescence ratio): WT-TRPV4, R269H and R316C transfected HEK293 cells
Procedure: The TRPV4 channel responds to a variety of stimuli (Nilius et al. Physiol Rev 87, 165-217 (2007); herein incorporated by reference in its entirety). To test the potential effects of the mutations on calcium channel activity, the calcium channel activity of transiently transfected HEK293 cells was analyzed using internal Fura-2 fluorescence ratio (340/380) as an indicator of the intracellular Ca2+ levels, which depend on Ca2+ influx. Calcium levels of the transfected cells were examined in response to various stimuli, including TRPV4-specific agonist 4α-phorbol 12, 13-didecanoate (4αPDD) (SEE FIG. 4), osmotic cell swelling (SEE FIG. 5), moderate heat (37° C.) (SEE FIG. 9) and endogenous agonist arachidonic acid (SEE FIG. 10). A consistent pattern of channel response to different stimuli was observed. […] The increased calcium channel activity was inhibited by TRPV antagonist ruthenium red.
Human embryonic kidney cells (HEK293) were grown on collagen-coated glass coverslips in Dulbecco's modified Eagle's medium containing 10% (v/v) human serum, 2 mM L-glutamine, 2 U/ml penicillin, and 2 […] at 37° C. in a humidity-controlled incubator with 5% CO2. The cells were transiently transfected with expression vectors, wild-type TRPV4, TRPV4^R316C or TRPV4^R269H using Lipofectamine 2000 (Invitrogen).
Intracellular free calcium concentration was measured using digital video microfluorimetry. Twenty-four hours after transfection, cells were rinsed briefly with HEPES buffer (120 mM NaCl, 5.4 mM KCl, 1.6 mM MgCl2, 1.8 mM CaCl2, 11 mM glucose, and 25 mM HEPES, pH 7.2), and loaded with 4 μM fura-2 AM (Molecular Probes) in HEPES buffer for 30 min at room temperature. […] The coverslips were then mounted on the stage of a Nikon Diaphot inverted epifluorescence microscope equipped for digital fluorescence microscopy. After excitation at 340 nm (Ca^2+-bound) and 380 nm (Ca^2+-free) fluorescence was digitally monitored at 520 nm. […] Values for Rmin and Rmax were determined by applying Ca^2+-free solution and high Ca^2+ containing solution in the presence of 5 μM ionomycin, respectively. […]

[2] = system: TRPV4 (wtTRPV4, TRPV4-R269H); assay: Whole cell voltage clamp recordings of TRPV4 currents from transfected HEK293 cells; assay type: cell-based, human; conditions: 20 μM ruthenium red in the bath; voltage ramp -100 to 100 mV; cells expressing wtTRPV4 or TRPV4-R269H
Procedure: The effect of the CMT2C-linked mutation (TRPV4R269H) on the electrophysiological properties of TRPV4 was examined. Whole-cell patch-clamp recordings were obtained from transiently transfected HEK293 cells.
Whole cell voltage clamp recordings were performed to HEK293 cells transiently transfected with wild-type or R269H TRPV4 cDNA. […] Similar GFP-fluorescent cells were selected for experiments. […] The series resistance was 4 to 14 MSΩ and was compensated between 65 and 75%. The extracellular solution consisted of (in mM): NaCl 100, KCl 6, MgCl2 2, CaCl2 1.5, Glucose 10, HEPES 10, pH 7.38 adjusted with NaOH, ˜315 mOsm adjusted with sucrose. Whole cell currents were recorded using an Axopatch 200B amplifier (Molecular Devices). Cells were held at −30 mV and currents were elicited by slow voltage ramps (from −100 mV to +100 mV, 0.6 sec duration), filtered at 5 KHz and sampled at 10 KHz. Drugs were bath-applied at a rate of ˜4 ml/min. The current density was determined by normalizing the current to the cell capacitance measured in voltage clamp using a −5 mV square pulse from a holding potential of −30 mV. Ruthenium red was prepared in a 20 mM stock solution (in water) and stored at 2-4° C. Working solutions were prepared freshly daily and were bath applied. After drug application the dish was discarded even if complete wash-out of the drug was obtained.

## CCCCC/C=C\C/C=C\C/C=C\C/C=C\CCCC(=O)O [AA, arachidonic acid]
[1]; arachidonic acid 10 μM
  effect on [Ca2+]i (internal fluorescence ratio): induced an increase in [Ca^2+]i

## N.N.N.N.N.N.N.N.N.N.N.N.N.N.[Cl-].[Cl-].[Cl-].[Cl-].[Cl-].[Cl-].[O-2].[O-2].[Ru+3].[Ru+3].[Ru+4] [ruthenium red]
[2]
  effect on basal whole-cell currents: dramatically reduced the currents
[1]; ruthenium red 20 μM used to block the stimuli, transfected HEK293 cells
  effect on the increased calcium channel activity: inhibited

## CCCCCCCCCC(=O)O[C@@H]1[C@@H](C)[C@@]2(O)[C@@H](C=C(CO)C[C@@]3(O)C(=O)C(C)=C[C@@H]23)[C@@H]2C(C)(C)[C@]12OC(=O)CCCCCCCCC [4αPDD, 4α-phorbol 12, 13-didecanoate]
[1]; 4αPDD 2 μM
  effect on [Ca2+]i (internal fluorescence ratio): induced an increase in [Ca2+]i
